We go through 1 molecule from patent publication US5763442A, “Anti-parasitic activity” (Universiteit Van Pretoria, priority 1995, dated 1998).

The inhibition is the share of the control response that was lost under treatment.

For the assay, the system named is P. falciparum (RB-1). The experiment in a line: Direct antimalarial activity, flow cytometry, strain RB-1. The format is cell-based, Plasmodium falciparum. On the procedure: To investigate the direct antimalarial activity of the riminophenazines B669, B4100, B4103, B4112, B4121, B4158 and B4169 against a laboratory strain of P. falciparum the following experiment was done:
A laboratory strain of P. falciparum (RB-1; obtained from Dr B L Sharp, National Malaria Research Programme, MRC, Durban) was maintained.
For these experiments malaria cultures of haematocrit 5.0% and initial parasitemia 2.0% were used. The malaria infected erythrocytes (ring stage) were incubated in microtitre plates with serial dilutions of B669, B4100, B4103, B4112, B4121, B4158 and B4169 (0.125-2 μg/ml) for 48 hours and processed for analysis on the flow cytometer as described in Example 3.
On the technique in general: A flow cytometer gives signals particle by particle.

The structures appear in SMILES notation.

Take `c1ccc(Nc2cc3nc4ccccc4n(-c4ccccc4)c-3cc2=NC2CCCCC2)cc1` [Compound B669, N,5-bis(phenyl)-3,5-dihydro-3-(cyclohexylimino)-2-phenazinamine]: for the setting “Plasmodium falciparum, 0.5 μg/ml, 48 h, FIG. 2, read-out: inhibition of growth of P. falciparum”, the inhibition at 0.5 µg/mL was over 50%. Besides, for the setting “summary statement”, the “activity against the malaria microorganism Plasmodium falciparum” value is “good activity”.
